Measured values as given in ChEMBL document CHEMBL1201862, “PubChem BioAssay data set” (2004).
The source made the active and inactive calls.

Key:
[1] = target: T1, Oxysterols receptor LXR-beta (Homo sapiens, UniProt P55055); type: functional, cell-based;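 also: Cell-based luminescence dose-response assay of agonist activity at LXR, run as a confirmatory counterscreen to a daf-12 agonist screen; HEK293 cells with Gal4-LXR fusion and GAL4-driven luciferase reporter; agonist potency from rising luciferase signal of a Gal4-LXR reporter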
T1 sequence (P55055 whole entry): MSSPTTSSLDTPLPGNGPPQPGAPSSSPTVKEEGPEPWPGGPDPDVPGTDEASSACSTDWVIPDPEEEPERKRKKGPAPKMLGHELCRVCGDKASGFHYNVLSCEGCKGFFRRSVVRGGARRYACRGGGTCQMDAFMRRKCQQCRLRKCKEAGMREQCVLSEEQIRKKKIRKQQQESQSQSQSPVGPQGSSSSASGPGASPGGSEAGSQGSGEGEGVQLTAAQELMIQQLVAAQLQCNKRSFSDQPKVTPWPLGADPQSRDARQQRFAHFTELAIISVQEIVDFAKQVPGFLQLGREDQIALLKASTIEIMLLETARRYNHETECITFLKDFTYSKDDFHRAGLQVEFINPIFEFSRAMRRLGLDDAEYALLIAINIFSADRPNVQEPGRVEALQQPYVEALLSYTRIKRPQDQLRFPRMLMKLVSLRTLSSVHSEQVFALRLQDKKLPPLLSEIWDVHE

[2] = blockade of melanocortin 4 receptor signaling – cell-based, plate reader, cherry pick, counter-screen for LGR2 antagonist project, dose response (AID 743444); type: functional;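 also: transfected HEK 293 cells stimulated with alpha-MSH peptide; potency of inhibitors of the alpha-MSH evoked signal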
[3] = target: T2, Rac GTPase-activating protein 1 (Homo sapiens, UniProt Q9H0H5); test: blockers of MgcRacGAP-driven Rac1 GTP hydrolysis – biochemical, ADP Hunter fluorescence, primary and confirmatory, confirmation (AID 624330); type: functional
T2 sequence (Q9H0H5 whole entry): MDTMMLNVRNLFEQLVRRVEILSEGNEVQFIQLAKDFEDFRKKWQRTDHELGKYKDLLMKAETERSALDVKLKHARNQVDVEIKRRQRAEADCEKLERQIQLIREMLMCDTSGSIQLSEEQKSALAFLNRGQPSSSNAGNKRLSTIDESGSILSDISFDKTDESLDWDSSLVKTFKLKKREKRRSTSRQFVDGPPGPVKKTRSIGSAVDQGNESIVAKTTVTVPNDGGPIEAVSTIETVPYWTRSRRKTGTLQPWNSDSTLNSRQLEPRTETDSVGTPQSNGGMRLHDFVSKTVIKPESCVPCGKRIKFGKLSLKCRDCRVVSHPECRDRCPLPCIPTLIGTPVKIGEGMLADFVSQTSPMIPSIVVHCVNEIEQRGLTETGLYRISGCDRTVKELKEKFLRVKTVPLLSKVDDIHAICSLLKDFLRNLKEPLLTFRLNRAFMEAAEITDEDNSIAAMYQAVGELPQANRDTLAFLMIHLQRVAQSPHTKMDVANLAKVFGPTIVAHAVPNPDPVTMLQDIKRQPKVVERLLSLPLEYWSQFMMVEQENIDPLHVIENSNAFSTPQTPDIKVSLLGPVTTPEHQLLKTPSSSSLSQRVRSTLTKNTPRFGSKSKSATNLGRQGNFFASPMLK

[4] = A549 cell cytotoxicity, dose response, cytotoxicity control, plate reader, cherry-pick, antagonist series (AID 743412); type: functional, cell-based
[5] = target: T3, Microphthalmia-associated transcription factor (Homo sapiens, UniProt O75030); test: reducers of TRPM1 reporter luminescence, concentration series – cell-based, SK-MEL-5, cherry-picked, set 3, MITF inhibitor project, dose response (AID 493073); type: functional;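 also: SK-MEL-5 melanoma cells with luciferase driven by the MITF target TRPM1 promoter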
T3 sequence (O75030 whole entry): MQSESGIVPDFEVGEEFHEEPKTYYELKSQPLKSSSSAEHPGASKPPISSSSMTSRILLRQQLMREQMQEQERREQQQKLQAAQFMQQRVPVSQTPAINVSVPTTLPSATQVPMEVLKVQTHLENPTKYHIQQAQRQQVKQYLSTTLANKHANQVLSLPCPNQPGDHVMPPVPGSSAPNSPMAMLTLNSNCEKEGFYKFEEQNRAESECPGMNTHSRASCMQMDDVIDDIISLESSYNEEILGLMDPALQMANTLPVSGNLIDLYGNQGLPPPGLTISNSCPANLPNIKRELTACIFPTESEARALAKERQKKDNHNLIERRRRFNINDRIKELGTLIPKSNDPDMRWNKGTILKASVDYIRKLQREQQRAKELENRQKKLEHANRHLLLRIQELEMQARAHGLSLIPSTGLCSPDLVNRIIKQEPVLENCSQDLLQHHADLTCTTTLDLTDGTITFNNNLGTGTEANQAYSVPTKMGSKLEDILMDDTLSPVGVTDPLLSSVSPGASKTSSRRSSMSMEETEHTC

Paired box protein Pax-8 = Paired box protein Pax-8 (Homo sapiens, UniProt Q06710); test: PAX8 transcriptional activity inhibition in RMG-I – RMG-I cells, luciferase, cherry-pick, dose response (AID 687027); type: functional, cell-based;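 also: luciferase reporter driven by Pax8 target thyroperoxidase promoter measured by SteadyGlo luminescence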
Paired box protein Pax-8, sequence (Q06710 whole entry): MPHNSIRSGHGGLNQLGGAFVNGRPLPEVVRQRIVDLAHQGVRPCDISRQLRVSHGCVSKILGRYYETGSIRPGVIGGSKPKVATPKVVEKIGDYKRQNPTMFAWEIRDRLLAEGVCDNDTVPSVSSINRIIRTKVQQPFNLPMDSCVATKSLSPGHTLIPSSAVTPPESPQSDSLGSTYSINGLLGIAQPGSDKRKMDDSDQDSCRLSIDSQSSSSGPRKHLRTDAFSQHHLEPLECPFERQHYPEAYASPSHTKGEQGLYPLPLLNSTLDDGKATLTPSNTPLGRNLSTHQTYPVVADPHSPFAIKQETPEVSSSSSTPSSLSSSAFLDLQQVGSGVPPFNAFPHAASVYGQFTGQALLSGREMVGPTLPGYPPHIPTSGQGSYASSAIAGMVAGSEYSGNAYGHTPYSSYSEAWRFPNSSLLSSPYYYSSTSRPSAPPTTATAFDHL

[6] = blockers of bursicon-stimulated LGR2 cAMP reporter – cell-based, HEK293, CRE-luciferase reporter, cherry pick, set 2, dose response (AID 743343); type: functional;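 also: transfected cells were stimulated with diluted bursicon conditioned medium after compound addition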
[7] = toxicity toward HepG2 liver cells – cell-based, plate reader, cherry-pick, antagonist series, cytotoxicity control, dose response (AID 743416); type: functional
cells [8] = test: cells
[9] = potency of ADAM10 substrate cleavage blockers – biochemical, QFRET, dose response (AID 743254);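 also: ADAM10 enzyme with the DM2 quenched FRET peptide as substrate; EDANS fluorescence gain as the protease cuts the substrate; inhibitor potency against ADAM10 proteolytic activity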
[10] = target: Disintegrin and metalloproteinase domain-containing protein 17 (Homo sapiens, UniProt P78536); test: inhibition of ADAM17 substrate cleavage – biochemical, quenched FRET substrate, counter-screen for ADAM10 exosite inhibitor project, dose response (AID 743253)
Disintegrin and metalloproteinase domain-containing protein 17, sequence (P78536 whole entry, the tested form may be a part): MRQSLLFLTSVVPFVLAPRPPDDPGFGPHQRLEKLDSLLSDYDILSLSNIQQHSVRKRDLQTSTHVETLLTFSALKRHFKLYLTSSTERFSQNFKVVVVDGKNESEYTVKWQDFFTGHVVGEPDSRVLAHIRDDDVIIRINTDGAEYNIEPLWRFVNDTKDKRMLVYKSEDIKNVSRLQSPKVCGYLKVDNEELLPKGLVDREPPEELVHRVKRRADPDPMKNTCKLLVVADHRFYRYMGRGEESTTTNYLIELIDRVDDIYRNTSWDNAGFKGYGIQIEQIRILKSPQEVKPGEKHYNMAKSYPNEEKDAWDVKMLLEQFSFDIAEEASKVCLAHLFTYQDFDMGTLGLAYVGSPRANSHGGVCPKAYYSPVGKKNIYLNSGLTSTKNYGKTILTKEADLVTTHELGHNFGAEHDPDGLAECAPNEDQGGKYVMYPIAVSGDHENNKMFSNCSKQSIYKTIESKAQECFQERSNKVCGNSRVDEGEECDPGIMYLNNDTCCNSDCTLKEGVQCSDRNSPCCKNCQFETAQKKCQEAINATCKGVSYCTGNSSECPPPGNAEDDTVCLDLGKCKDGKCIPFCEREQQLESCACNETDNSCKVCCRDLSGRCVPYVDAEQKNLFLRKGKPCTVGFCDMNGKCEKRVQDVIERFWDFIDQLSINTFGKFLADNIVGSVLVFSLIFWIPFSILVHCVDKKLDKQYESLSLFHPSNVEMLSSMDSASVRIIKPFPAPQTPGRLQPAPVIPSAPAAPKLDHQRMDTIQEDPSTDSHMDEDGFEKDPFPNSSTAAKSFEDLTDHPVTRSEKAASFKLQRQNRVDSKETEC

HEK293 = test: viability loss in HEK293T cells – cell-based, ATP luminescence, cherry-pick samples, cytotoxicity control, dose response (AID 687005); type: functional; conditions: Homo sapiens;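 also: cells exposed to compound for 48 hours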
[11] = HEK293 Cytotoxicity Assay Measured in Cell-Based System Using Plate Reader - 7071-01_Inhibitor_Dose_CherryPick_Activity_Set2.; type: functional
[12] = non-specific 3'UTR reporter inhibition in Clone20-Shn3RL – cell-based, Renilla luciferase, cherry-picked, counter-screen for Shn3 inhibitor project, dose response (AID 624133); type: functional
[13] = COV362 cell viability loss – plate reader, dry powder, SA12, cytotoxicity control for PAX8 inhibitor project, dose response (AID 743144); type: functional, cell-based
[14] = reduction of Shn3 3'UTR-driven luciferase in osteoblasts – cell-based, Clone20 osteoblasts, firefly luciferase, cherry-picked, dose response (AID 624132); type: functional;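 also: firefly luciferase luminescence from reporter carrying the Shn3 3'UTR in osteoblasts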
[15] = inhibitors acting on PAX2 in cells – cell-based, plate reader, dry powder samples, selectivity assay for PAX8 inhibitor project, dose response (AID 743048); type: functional;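 also: HEK293 cells carrying a WT1 promoter luciferase reporter driven by expressed Pax2; potency is for inhibition of Pax2 driven reporter signal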
[16] = OVCAR-3 cell viability loss – plate reader, dry powder samples, PAX8 inhibitor project, dose response (AID 743044); type: functional, cell-based
[17] = loss of viability in HepG2 cells – cell-based, CellTiter-Glo, cherry-picked, cytotoxicity control for Shn3 inhibitor project, dose response (AID 624134); type: functional
[18] = A2780 cell killing – plate reader, dry powder samples, cytotoxicity control, dose response (AID 743046); type: functional, cell-based
cells [19] = type: functional, cell-based
[20] = IGROV1 cell killing – plate reader, dry powder samples, PAX8 inhibitor project, dose response (AID 743043); type: functional, cell-based; conditions: IGROV-1
[21] = COV434 cell viability loss – plate reader, dry powder, SA7, cytotoxicity control for PAX8 inhibitor project, dose response (AID 743145); type: functional, cell-based
cells [22] = type: functional, cell-based; remark: listed apart in the source
[23] = PAX8-dependent cell viability loss – plate reader, dry powder, dose response (AID 743049); type: functional, cell-based
[24] = OVCAR4 cell viability loss – plate reader, dry powder, SA11, cytotoxicity control for PAX8 inhibitor project, dose response (AID 743150); type: functional, cell-based; conditions: OVCAR-4
[25] = OV-90 cell viability loss – plate reader, dry powder, SA8, PAX8 inhibitor project, dose response (AID 743149); type: functional, cell-based
[26] = target: Metabotropic glutamate receptor 7 (Homo sapiens, UniProt Q14831); test: potentiation of glutamate EC20 at mGlu7 – cell-based, calcium mobilization, Galpha15, dose response (AID 743384); type: functional
Metabotropic glutamate receptor 7, sequence (Q14831 whole entry): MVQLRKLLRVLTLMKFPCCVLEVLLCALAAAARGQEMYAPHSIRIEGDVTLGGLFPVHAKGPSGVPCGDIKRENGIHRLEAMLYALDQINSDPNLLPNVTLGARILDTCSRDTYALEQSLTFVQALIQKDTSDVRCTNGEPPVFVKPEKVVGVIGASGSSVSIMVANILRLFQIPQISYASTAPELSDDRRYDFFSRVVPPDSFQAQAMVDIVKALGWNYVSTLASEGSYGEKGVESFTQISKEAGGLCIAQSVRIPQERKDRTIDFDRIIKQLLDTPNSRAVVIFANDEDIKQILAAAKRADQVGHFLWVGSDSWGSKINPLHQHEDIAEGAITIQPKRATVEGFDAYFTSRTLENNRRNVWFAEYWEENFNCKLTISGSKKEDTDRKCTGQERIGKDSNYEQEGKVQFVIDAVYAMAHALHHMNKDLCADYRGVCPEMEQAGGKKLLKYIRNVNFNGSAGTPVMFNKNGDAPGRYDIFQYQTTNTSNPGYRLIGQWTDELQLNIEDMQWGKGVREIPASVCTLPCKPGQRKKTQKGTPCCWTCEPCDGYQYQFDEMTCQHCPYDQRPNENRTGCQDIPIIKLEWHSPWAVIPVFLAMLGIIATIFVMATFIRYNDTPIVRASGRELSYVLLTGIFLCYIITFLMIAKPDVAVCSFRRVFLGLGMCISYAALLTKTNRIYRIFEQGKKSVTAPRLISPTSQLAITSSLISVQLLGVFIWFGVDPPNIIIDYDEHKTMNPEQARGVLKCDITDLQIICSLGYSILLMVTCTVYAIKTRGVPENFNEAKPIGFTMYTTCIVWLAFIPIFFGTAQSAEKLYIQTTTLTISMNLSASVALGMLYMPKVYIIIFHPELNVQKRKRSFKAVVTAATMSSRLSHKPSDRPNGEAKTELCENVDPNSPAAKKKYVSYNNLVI

In the case of O=C(O)c1cccc(N/N=C/c2cccs2)c1, the EC50 [1] is reported as > 67.5 µM (inactive), the AC50 [2] is reported as 2.41 µM (active) and the IC50 [3] is reported as 75.3 µM (active). For the same molecule, the AC50 [4] was > 52 µM (inactive), the AC50 [5] was 1.51 µM (active) and the AC50 (Paired box protein Pax-8) was 6.14 µM (active). For the same molecule, the AC50 [6] was 1.87 µM (active), the AC50 [7] was > 52 µM (inactive) and the EC50 (cells [8]) was > 67.5 µM (inactive).
With COc1cc(/C=N/OCC(=O)Nc2ccc(OC(F)F)cc2)ccc1OCc1ccccc1 the IC50 [9] was > 69.5 µM (inactive) and the IC50 [10] was > 69.5 µM (inactive).
In the case of CC(NC(=O)COc1ccccc1C(C)(C)C)c1ccccc1 (configuration not stated), the AC50 (HEK293) is reported as 51.4 µM (active) and the AC50 [11] is reported as 51.4 µM (active).
With C[C@H](CO)N1C[C@H](C)[C@@H](CN(C)Cc2ccc(Oc3ccccc3)cc2)Oc2ccc(NC(=O)Nc3ccc4c(c3)OCO4)cc2C1=O the AC50 (HEK293) was 26.4 µM (active) and the AC50 [11] was 26.4 µM (active).
With Cc1cc(NC(=O)CCCS(=O)(=O)c2nc(-c3cccs3)cc(C(F)(F)F)n2)no1 the AC50 [12] was 6.46 µM (active), the AC50 [13] was 14.3 µM (active) and the AC50 [14] was 1.73 µM (active). For the same molecule, the AC50 [15] was 17.3 µM (active), the AC50 [16] was 15.5 µM (active) and the AC50 (Paired box protein Pax-8) was 6.85 µM (active). For the same molecule, the AC50 [17] was 16.3 µM (active), the AC50 [18] was 10.3 µM (active) and the EC50 (cells [19]) was > 350 µM (not active). The AC50 [20] was 16.4 µM (active), the AC50 [21] was 12.1 µM (active) and the EC50 (cells [22]) was > 350 µM (not active). The AC50 [23] was 18.6 µM (active), the AC50 [24] was 20.8 µM (active) and the AC50 [25] was 26.3 µM (active).
With CCOc1ccc(-n2c(C)cc(C(=O)CSCc3ccc(OC)cc3)c2C)cc1 the EC50 [26] was 10 µM (active).
In the case of CC(=O)Nc1ccc(SCC(=O)c2cc(C)n(CC3COc4ccccc4O3)c2C)cc1 (configuration not stated), the EC50 [26] is reported as 2.6 µM (active).
